From patent publication US7259250B2, “C-nitroso compounds and use thereof” (Duke University, priority 2000, dated 2007)

How the values were obtained:
[1] = test system: rabbit aortic ring (smooth muscle); experiment: Relaxation of rabbit aortic ring (Example II, tension tracings FIGS. 1-10); assay type: cell-based
Protocol: The ability of various C-nitroso compounds as described below to relax a rabbit aortic ring (smooth muscle) was carried out as described in Stamler, J., et al., PNAS, Vol. 89, 444-448 (1992).
Results shown in FIGS. 1-10 which are tracings of force (tension) in the Y-direction versus time in the X-direction with downward direction indicating relaxation and upward direction indicating constriction. Concentrations of C-nitroso compound applied at time in the X-direction are indicated as 10^−9 (1 nanomolar), 10^−6 (1 micromolar), 10^−3 (1 milimolar), etc. “PE” on the figures means the application of phenylephrine, a constricting agent.

person with angina = experiment: Example IV: patient case, angina with nitrate tolerance; assay type: in vivo, human
[2] = test system: person with arthritis, esophageal spasm, coronary artery disease, congestive heart failure, impotence and nightly urinary incontinence; experiment: Example III: patient case, ibuprofen partly given as nitrosoketoibuprofen; assay type: in vivo, human
[3] = Water solubility (dissolves in water at least to 1 micromolar); assay type: physicochemical; settings: water-soluble = dissolves in water at least to 1 micromolar
Text: As used herein, the term “water-soluble” means dissolves in water at least to provide a concentration of 1 micromolar.

[4] = cited from earlier work
[5] = compound alone, at micromolar concentration(s)

**Q.** Which “relaxation activity (in words)” value [1, 5] does the source give for `O=Nc1ccccc1` [C-nitrosobenzene] here?
**A.** no activity

**Q.** Which tolerance development (person with angina; angina treated with nitroglycerin) does the source give for `O=[N+]([O-])OCC(CO[N+](=O)[O-])O[N+](=O)[O-]` [nitroglycerin] here?
**A.** nitrate tolerance

**Q.** For `CC(C)(N=O)C(=O)CCC(=O)Oc1ccccc1C(=O)O` [Compound (129a)], which “concentration at which relaxation effect is shown” value ([1]; compound alone, FIG. 1) is on record?
**A.** 10 µM

**Q.** For `CC(=O)C1(C)CCC2CCCC[C@@H]2ON1O` (some centres unmarked) [Compound (135a)], which outcome of angina (person with angina; 20 μg/min continuously, after nitroglycerin stopped) is on record?
**A.** relief of angina

**Q.** Which “relaxation activity (in words)” value [1, 5] does the source give for C-nitrosophenol here?
**A.** no activity

**Q.** Which adverse effect ([2]; ibuprofen 400 mg, three times a day) does the source give for `CC(C)Cc1ccc(C(C)C(=O)O)cc1` (centres unmarked) [ibuprofen] here?
**A.** gastrointestinal upset

**Q.** Which “concentration at which relaxation effect is displayed” value ([1]; compound alone, FIGS. 5 and 6) does the source give for `CC(C(=O)O)c1ccc(C(=O)C(C)(C)[N+]([O-])=[N+]([O-])C(C)(C)C(=O)c2ccc(C(C)C(=O)O)cc2)cc1` (stereo not drawn) [nitrosoketoibuprofen, dimeric 2-[4′-(α-nitroso)isobutyrylphenyl]propionic acid] here?
**A.** 10 nM

**Q.** And the “relaxation activity (in words)” value ([1]; compound alone, at concentration higher than 10 nanomolar, FIG. 6)?
**A.** not much more activity

**Q.** And the “relaxation activity (in words)” value ([1]; in conjunction with 100 μM glutathione, FIG. 7)?
**A.** no activity

**Q.** What about the “activity (in words)” value ([1]; without glutathione, at nanomolar concentrations) of the same compound?
**A.** therapeutically active

**Q.** And the outcome of symptoms ([2]; ibuprofen 400 mg three times a day with 0.1% by weight of the drug as the dimeric nitrosoketoibuprofen)?
**A.** all symptoms are relieved

**Q.** Which “concentration at which relaxation effect is displayed” value ([1]; compound alone) does the source give for `CC(=O)C(C)(N=O)C(C)=O` [3-methyl-3-nitroso-2,4-petanedione, 3-methyl-3-nitroso-2,4-pentanedione] here?
**A.** greater than 10 micromolar

**Q.** And the “concentration at which further relaxation effect is displayed” value ([1]; compound alone, FIG. 9)?
**A.** greater than 100 micromolar

**Q.** And the “water solubility (in words)” value [3]?
**A.** not water soluble

**Q.** What about the “water solubility (in words)” value ([3]; listed as 3-methyl-3-nitroso-2,4-pentanedione) of the same compound?
**A.** do not meet the definition of water solubility

**Q.** What about the “pKa of the carbon acid from which the C-nitroso compound is obtained” value ([4]; pKa of the parent carbon acid, not of the C-nitroso compound) of the same compound?
**A.** less than 10

**Q.** For `CC(C)C(=O)c1ccc(C(C)C(=O)O)cc1` (centres unmarked) [2-(4′-isobutyrylphenyl)propionic acid], which “carbon acid pKa” value ([4]; of the named substance itself) is on record?
**A.** about 20

**Q.** Which “water solubility (in words)” value [3] does the source give for `CCC(N=O)(C(C)=O)C(C)=O` [3-ethyl-3-nitroso-2,4-pentanedione] here?
**A.** do not meet the definition of water solubility

**Q.** With `CC(C)(C)N=O` [2-methyl-2-nitrosopropane] as the compound, how does the “relaxation activity (in words)” value ([1]; compound alone, at any of the concentrations used, FIG. 10) read?
**A.** no relaxation effect activity

**Q.** And the “water solubility (in words)” value [3]?
**A.** not water soluble
